# Measurements reported in patent US20260355169A1, “METHODS OF TREATING CANCERS USING ISOQUINOLINE OR 6-AZA-QUINOLINE DERIVATIVES” (Black Diamond Therapeutics, Inc., priority 2022, published 2026).
# System: BaF3 BRAF-KIAA1549 fusion cells
# Assay: BaF3 BRAF-KIAA1549 fusion cell proliferation assay
# Assay type: cell-based
# Conditions: Mus musculus, BaF3, 96 h, read-out: IC50, inhibition of cell growth, BaF3-BRAF:KIAA1549 Fusion
# Method: Retroviral Production: The BRAF-KIAA1549 fusion mutant was subcloned into pMXs-IRES-Blasticidin (RTV-016, Cell Biolabs, San Diego, CA). […]. Briefly, HEK 293T cells were plated in Poly-D-lysine coated 6-well plate (2.5×10^5 cells per well) and incubated overnight. The next day, retroviral plasmids (1 μg of BRAF-KIAA fusion mutant, 0.32 μg of pCMV-Gag-Pol and 0.165 μg pCMV-VSV-G) were mixed in 300 μL of Optimem (31985, Life Technologies). The mixture was incubated at room temperature for 5 minutes and then added to Optimem containing transfection reagent Lipofectamine (11668, Invitrogen) and incubated for 20 minutes. The mixture was then added dropwise to HEK 293T cells. The next day the medium was replaced with fresh culture medium and retrovirus was harvested at 24 hours.
# Generation of BRAF-KIAA1549 fusion stable cell line: BaF3 cells were plated in V-bottom 96 well plate (COSTAR #3894) in 80 μL of RPMI/10% FBS and 0.01 ng/mL mouse IL-3, supplemented with 8 μg/mL polybrene (4×10^4 cells/well). Cells were transduced with 20 μL of BRAF-KIAA1549 fusion viral supernatant by centrifuging for 30 minutes at 1000 rpm. Cells were placed in a 37 °C incubator overnight. Next day 100 μL of RPMI/10% FBS and 0.01 ng/mL mouse IL-3 was added. After 24 hours, 100 μL of cells were transferred to a 24 well plate containing 900 μL of RPMI/10% FBS and 15 μg/mL Blasticidin. Contents of the 24 well plate were sampled for cell viability via CellTiterGlo (Promega) over a 2-week period.
# Assay for cell proliferation: BaF3 BRAF-KIAA1549 fusion cells were resuspended at 1.5×10^5 c/mL in RPMI containing 10% Heat Inactivated FBS, 1% L-glutamine and dispensed in duplicate ([…]) into 384 well plates. To determine the effect of compound on cell proliferation, BaF3 BRAF-KIAA1549 fusion cells were incubated for 96 hours in the presence of vehicle control (DMSO) or compound at varying concentrations. Inhibition of cell growth was determined by luminescent quantification (Envision by Perkin Elmer) of intracellular ATP content using CellTiterGlo (Promega), according to the protocol provided by the manufacturer. To determine the IC50 values, the vehicle-treated cells were normalized as viable cells and analyzed using the CDD Vault, Collaborative Drug Discovery, Burlingame, CA (the Levenberg-Marquardt algorithm; Levenberg, K, […]; Marquardt, D., 1963).
# Table A assigns each compound a code for potency in the BaF3 BRAF-KIAA1549 fusion cell proliferation assay: A, B, C, or D. According to the code, A represents an IC50 value<20 nM; B represents an IC50 value≥20 nM and <100 nM; C represents an IC50 value≥100 nM and <500 nM; and D represents an IC50 value≥500 nM.
row,SMILES,IC50 [nM]
1,CNc1cc2ncc(-c3cc(NC(=O)c4cc(C(F)(F)F)ccn4)nnc3C)cc2cn1 [compound 75],20 to 100
2,CNc1cc2ncc(-c3cc(NC(=O)c4cc(C(F)(F)F)c(OCCO)cn4)ccc3C)cc2cn1 [compound 71],20 to 100
3,CNc1cc2ncc(-c3cc(NC(=O)c4cc(C(C)(C)C#N)ccn4)ccc3C)cc2cn1 [compound 14],< 20
4,CNc1cc2ncc(-c3cc(NC(=O)c4cc(C(C)(F)F)ccn4)cnc3C)cc2cn1 [compound 23],20 to 100
5,CNc1cc2ncc(-c3cc(NC(=O)c4cncc(C(F)(F)F)c4)ccc3C)cc2cn1 [compound 3],< 20
6,CNc1cc2ncc(-c3cc(NC(=O)c4n[nH]c5c4CCCC5(C)C)ccc3C)cc2cn1 [compound 262],20 to 100
7,CNc1cc2ncc(-c3cc(NC(=O)c4noc5c4CC(C(C)(C)C)CC5)cnc3C)cc2cn1 (stereo not drawn) [compound 241],100 to 500
8,CNc1cc2ncc(-c3cc(C(=O)Nc4cc(C(C)(C)C#N)ccn4)cnc3C)cc2cn1 [compound 59],20 to 100
9,CCNc1cc2ncc(-c3cc(NC(=O)c4cc(C(C)(C)C#N)ccn4)ccc3C)cc2cn1 [compound 173],20 to 100
10,CNc1cc2ncc(-c3cc(NC(=O)c4cc(C(O)(O)C(F)(F)F)ccn4)cnc3C)cc2cn1 [compound 206],20 to 100
11,CNc1cc2ncc(-c3cc(NC(=O)c4cc(C(C)(C)C#N)ccn4)cc(F)c3Cl)cc2cn1 [compound 44],20 to 100
12,CNc1cc2ncc(-c3cc(NC(=O)c4noc5c4C[C@H](C)CC5)ccc3C)cc2cn1 [compound 237],20 to 100
13,CNc1cc2ncc(-c3cc(NC(=O)c4cc(C(C)(C)C#N)ccn4)c(F)cc3Cl)cc2cn1 [compound 37],20 to 100
14,CNc1cc2ncc(-c3cc(NC(=O)c4cc(C(C)(C)C#N)ccn4)nnc3C)cc2cn1 [compound 77],20 to 100
15,CNc1cc2ncc(-c3cc(NC(=O)c4cnc5n4CC(C)CC5)cnc3C)cc2cn1 (stereo not drawn) [compound 225],20 to 100
16,CNc1cc2ncc(-c3cc(NC(=O)c4cc(C5(C#N)CC5)ccn4)cnc3C)cc2cn1 [compound 32],< 20
17,CCNc1cc2ncc(-c3cc(NC(=O)c4ccnc(C5(F)CC5)c4)ccc3C)cc2cn1 [compound 153],20 to 100
18,CNc1cc2ncc(-c3cc(NC(=O)N(C)c4cc(C(F)F)ccn4)ccc3C)cc2cn1 [compound 189],100 to 500
19,CNc1cc2ncc(-c3cc(NC(=O)c4c[nH]c5c4CC(C)CC5)ccc3C)cc2cn1 (stereo not drawn) [compound 266],20 to 100

row,SMILES,IC50 [nM]
1,CNc1cc2ncc(-c3cc(NC(=O)c4ccnc(C(C)(C)C#N)c4)c(F)cc3C)cc2cn1 [compound 217],20 to 100
2,CNc1cc2ncc(-c3cc(NC(=O)CN4CCC[C@H](C(F)(F)F)C4)cnc3C)cc2cn1 [compound 62],20 to 100
3,CNc1cc2ncc(-c3cc(NC(=O)c4noc5c4CC(C)(C)CC5)cnc3C)cc2cn1 [compound 257],20 to 100
4,CNc1cc2ncc(-c3cc(NC(=O)c4cnn5c4CC(C)CC5)ccc3C)cc2cn1 (stereo not drawn) [compound 265],< 20
5,CNc1cc2ncc(-c3cc(NC(=O)c4cc(C(F)(F)F)ccn4)cnc3C)cc2cn1 [compound 20],< 20
6,CCC(C)c1ccnc(C(=O)Nc2cnc(C)c(-c3cnc4cc(NC)ncc4c3)c2)c1 (stereo not drawn) [compound 227],20 to 100
7,CNc1cc2ncc(-c3cc(NC(=O)c4ccnc(C(C)(C)C#N)c4)cnc3C)cc2cn1 [compound 55],< 20
8,CNc1cc2ncc(-c3cc(NC(=O)c4n[nH]c5c4C[C@H]4C[C@@H]54)cnc3C)cc2cn1 [compound 253],20 to 100
9,CNc1cc2ncc(-c3cc(NC(=O)c4cnc5n4CCCCC5)cnc3C)cc2cn1 [compound 232],100 to 500
10,CNc1cc2ncc(-c3cc(NC(=O)c4cccc5c4CCC5O)cnc3C)cc2cn1 (stereo not drawn) [compound 219],> 500
11,CNc1cc2ncc(-c3cc(NC(=O)c4cnc5n4C[C@H](C)CC5)ccc3C)cc2cn1 [compound 230],20 to 100
12,CNc1cc2ncc(-c3cc(NC(=O)c4cc(C(F)F)c(F)cn4)cnc3C)cc2cn1 [compound 66],20 to 100
13,CNc1cc2ncc(-c3cc(NC(=O)[C@@H](C)n4cnc(C(F)(F)F)n4)ccc3C)cc2cn1 [compound 69],100 to 500
14,CNc1cc2ncc(-c3cc(NC(=O)c4noc5c4CN(C(C)C)CC5)cnc3C)cc2cn1 [compound 254],100 to 500
15,CNc1cc2ncc(-c3cc(NC(=O)c4cccc5c4OC(C)C5)cnc3C)cc2cn1 (stereo not drawn) [compound 239],> 500
16,CNc1cc2ncc(-c3cc(NC(=O)c4cc(C(C)(C)C#N)ccn4)c(F)cc3F)cc2cn1 [compound 43],20 to 100
17,CNc1cc2ncc(-c3cc(NC(=O)c4cncc(C(F)(F)F)c4)cnc3C)cc2cn1 [compound 21],20 to 100
18,CNc1cc2ncc(-c3cc(NC(=O)c4cccc(N(C)C)c4)cnc3C)cc2cn1 [compound 19],< 20
19,CNc1cc2ncc(-c3cc(NC(=O)c4cc(C(F)(F)F)ccn4)c(F)cc3C)cc2cn1 [compound 224],100 to 500

# The remaining lines, values ahead:
row,IC50 [nM],SMILES
1,< 20,Cc1ccc(NC(=O)c2ccnc(C(C)(C)F)c2)cc1-c1ccc2c3c(ncc2c1)NC(=O)C3 [compound 276]
2,< 20,CNc1cc2ncc(-c3cc(NC(=O)c4ccnc(C(F)(F)F)c4)cnc3C)cc2cn1 [compound 27]
3,20 to 100,CNc1cc2ncc(-c3cc(NC(=O)c4noc5c4CC(F)(F)CC5)cnc3C)cc2cn1 [compound 247]
4,20 to 100,CNc1cc2ncc(-c3cc(NC(=O)c4cc(C(C)(C)C#N)ccn4)cnc3C)cc2cn1 [compound 30]
5,> 500,CNc1cc2ncc(-c3cc(NC(=N)c4cc(C(F)(F)F)ccn4)cnc3C)cc2cn1 [compound 64]
6,20 to 100,CNc1cc2ncc(-c3cc(NC(=O)c4noc5c4CCCCC5)cnc3C)cc2cn1 [compound 245]
7,100 to 500,CNc1cc2ncc(-c3cc(NC(=O)C[C@H]4C[C@H](C(F)(F)F)CCO4)cnc3C)cc2cn1 [compound 36]
8,20 to 100,CNc1cc2ncc(-c3cc(NC(=O)c4cc(C(C)(C)C#N)ccn4)c(F)cc3C)cc2cn1 [compound 42]
9,20 to 100,CNc1cc2ncc(-c3cc(NC(=O)c4cc(C(C)(C)C#N)ccn4)ccc3F)cc2cn1 [compound 40]
10,< 20,CNc1cc2ncc(-c3cc(NC(=O)c4cnc5n4CC(C)CC5)ccc3C)cc2cn1 (stereo not drawn) [compound 204]
11,> 500,CNCC(F)(F)c1cccc(C(=O)Nc2cnc(C)c(-c3cnc4cc(NC)ncc4c3)c2)n1 [compound 250]
12,> 500,CNc1cc2ncc(-c3cc(NC(=O)c4ccc(OC(F)F)cn4)cnc3C)cc2cn1 [compound 72]
13,20 to 100,CNc1cc2ncc(-c3cc(NC(=O)c4c[nH]c5ccccc45)cnc3C)cc2cn1 [compound 194]
14,< 20,CNc1cc2ncc(-c3cc(NC(=O)c4ccnc(C(C)(C)F)c4)cnc3C)cc2cn1 [compound 24]
15,> 500,CNc1cc2ncc(-c3cc(NC(=O)c4cccc5c4CCCC5=O)cnc3C)cc2cn1 [compound 198]
16,< 20,CNc1cc2ncc(-c3cc(NC(=O)c4cc(C5(C#N)CC5)ccn4)ccc3C)cc2cn1 [compound 16]
17,20 to 100,CCC(OC)c1ccnc(C(=O)Nc2cnc(C)c(-c3cnc4cc(NC)ncc4c3)c2)c1 (stereo not drawn) [compound 260]
18,< 20,CNc1cc2ncc(-c3cc(NC(=O)c4cc(C(NC)C(F)(F)F)ccn4)ccc3C)cc2cn1 (stereo not drawn) [compound 203]
19,20 to 100,CNc1cc2ncc(-c3cc(NC(=O)c4nccc(C(F)(F)F)c4Cl)cnc3C)cc2cn1 [compound 26]
20,20 to 100,CNc1cc2ncc(-c3cc(NC(=O)c4cc(C(F)F)ccn4)ccc3C)cc2cn1 [compound 11]
21,20 to 100,CNc1cc2ncc(-c3cc(NC(=O)c4cc(C(C)(C)F)ccn4)cnc3C)cc2cn1 [compound 65]
22,20 to 100,Cc1ccc(NC(=O)c2cc(C(C)(C)C#N)ccn2)cc1-c1cnc2cc(N)ncc2c1 [compound 174]
23,> 500,CNc1cc2ncc(-c3cc(NC(=O)c4cc(C(C)(C)C#N)ccn4)c(F)c(F)c3C)cc2cn1 [compound 51]
24,20 to 100,CNc1cc2ncc(-c3cc(NC(=O)c4n[nH]c5c4CCCC5)cnc3C)cc2cn1 [compound 229]
25,> 500,CNc1cc2ncc(-c3cc(NC(=O)c4cc(C(C)(C)C#N)ccn4)cc(Cl)c3C)cc2cn1 [compound 48]
